This note sets out measurements from US20170362590A1, “PHARMACEUTICAL COMPOSITIONS COMPRISING MICRORNA” (OREGON HEALTH & SCIENCE UNIVERSITY, priority 2016, published 2017).

The test system of one data set is HUVEC. The data set can be described thus: HUVEC cell proliferation assay. In kind it is cell-based, human.
Data set [1] relates to 3'-UTRs of MRE11a, RAD50, and NBN. Put plainly: 3'-UTR luciferase reporter assay in HEK-293T cells. In kind it is cell-based, human. To be noted: 24 hours cotransfection. The procedure: To determine targets of miR-99b and miR-494, the RNAs were ectopically expressed in HUVECs. Targets were analyzed using a DNA damage array 24 hours after transfection. Three common targets for miR-99b and miR-494 were identified: MRE11a, RAD50 and NBN. These three proteins form the MRN complex which is involved in homologous repair and non-homologous end joining. mRNA targets of miR-494 and miR-99b were also assessed using a miR-TRAP assay. […] Finally, the 3′-UTRs of MRE11a, RAD50, and NBN were cloned into luciferase reporter vectors. The luciferase vectors were contrasfected with miR-494 and miR99b into HEK-293T cells for 24 hours.
MRE11a Luciferase-3-UTR plasmid was purchased from SwitchGear Genomics. RAD50 and NBN luciferase constructs were purchased as pmiR-REPORT vector (Ambion). Luciferase assay reagents were purchased from Switch Gear Genomics and Promega.
Cells were transfected at 50-60% confluence using standard forward transfection protocols using RNAimax reagent (Life Technologies) for miRs/siRNAs and Lipofectamine 2000 for plasmid or plasmid RNA dual transfections. Typically 50 nM RNA and […] plasmid DNA were used for transfections. Target protectors were transfected at a concentration of 50 nM or equivalent to the miR amounts.

The next data set has as its system breast cancer cell. Put plainly: Breast cancer cell proliferation in 2D and 3D assays. In kind it is cell-based. As to conditions: ectopic expression.

As to “miR-494: Human miR-494-3p (SEQ ID NO: 1), used as miR mimic; in vivo delivered in 7C1 nanoparticles (sense UGAAACAUACACGGGAAACCUC; delivered in vivo in 7C1 nanoparticles, further chemistry not given here; listed as Homo sapiens)”, the “proliferation relative to controls” value in the data set on HUVEC (HUVEC, overexpression for 48 hours) was “less proliferation”. For the same substance, in the data set with HUVEC (high-passage HUVEC), the “proliferation in old HUVECs” value is on record as “without dramatically changing proliferation”. Moreover, the “luciferase expression from 3'-UTR reporter vectors” value in data set [1] was “Significantly less luciferase expression”. Also, the “breast cancer cell proliferation” value in the data set on breast cancer cell was “diminished breast cancer cell proliferation”.
